Test results reported in paper PMC8742467, “Therapeutical interference with the epigenetic landscape of germ cell tumors: a comparative drug study and new mechanistical insights” (Clinical Epigenetics, 2022).

Key:
[1] = tested on: histone modifications in 2102EP cells; assay: Mass spectrometry analysis of histone modifications (Mod Spec); format: cell-based, Human
Outline: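 2102EP cells were treated for 16 h with EC50 concentrations of Quisinostat, JIB-04, Chaetocin, MZ-1, LP99, PRT4165 or GSK343, with DMSO as solvent control. After trypsin harvest, histones were extracted and analysed by mass spectrometry. Raw data were converted to z-scores.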

[2] = tested on: Sertoli cells FS1 (SC); assay: XTT cell viability assay, Sertoli cells; format: cell-based; conditions: Homo sapiens; after 48 h
Procedure: (§1) The […] (XTT) assays were performed as described previously. In summary, for GCT and fibroblast cell lines 5 × 10^3 cells (3 × 10^3 for UC, PCa and RCC cell lines) per 96-well were seeded and different drug concentrations (see Additional file 2: Fig. S2, Additional file 3: Fig. S3) or corresponding solvents were added to the cells the following day. For drug details see Additional file 12: Table S2 C. Each condition was analyzed in four technical replicates and EC50 values were calculated by GraphPad Prism v8.

[3] = tested on: CC-R (cisplatin-resistant choriocarcinoma subclones); assay: XTT cell viability assay, mean per entity CC-R; format: cell-based; conditions: Homo sapiens, after 48 h
Procedure: as §1

[4] = tested on: fibroblasts (MPAF, HVHF2); assay: XTT cell viability assay, fibroblasts; format: cell-based; conditions: Homo sapiens, Fibroblast; after 48 h, mean
Procedure: as §1

[5] = tested on: 2102EP (EC); assay: XTT cell viability assay, 2102EP; format: cell-based; conditions: Homo sapiens; after 48 h, XTT, n = 4; read-out: EC50 colour/symbol code, EC 2102EP
Procedure: as §1

[6] = tested on: SE-R (cisplatin-resistant seminoma subclone); assay: XTT cell viability assay, mean per entity SE-R; format: cell-based; conditions: Homo sapiens, after 48 h
Procedure: as §1

[7] = tested on: TCam-2 (SE); assay: XTT cell viability assay, TCam-2; format: cell-based; conditions: Homo sapiens; after 48 h, XTT, n = 4; read-out: EC50 colour/symbol code, SE TCam-2
Procedure: as §1

[8] = tested on: SE (seminoma) cell lines; assay: XTT cell viability assay, mean per entity SE; format: cell-based; conditions: Homo sapiens, after 48 h
Procedure: as §1

[9] = tested on: phosphorylated kinase targets in 2102EP cells; assay: Proteome Profiler Human Phospho-Kinase Array; format: cell-based; conditions: 16 h
Procedure: For the detection of phosphorylated kinase targets, the Proteome Profiler Human Phospho-Kinase Array Kit (R&D Systems, Abingdon, UK) was used according to the manufacturer’s instructions. The ChemiDoc Imaging System (Bio-Rad Laboratories, Feldkirchen, Germany) was used for detection. 2102EP cells were harvested after 16 h of treatment with the epi-drugs. Pixel density was analyzed using Fiji ImageJ 1.53c.

[10] = tested on: EC (embryonal carcinoma) cell lines; assay: XTT cell viability assay, mean per entity EC; format: cell-based; conditions: Homo sapiens, after 48 h
Procedure: as §1

[11] = tested on: EC-R (cisplatin-resistant embryonal carcinoma subclones); assay: XTT cell viability assay, mean per entity EC-R; format: cell-based; conditions: Homo sapiens, after 48 h
Procedure: as §1

[12] = 2102EP cells, Mod Spec raw data
[13] = 2102EP, EC50, 16 h, vs solvent control

Cn1cc(CNCC2CCN(c3ncc(C(=O)NO)cn3)CC2)c2ccccc21 [Quisinostat]
H1.4: K25AC, % of peptide pool [1, 12]: 0.02419%
H1.4: K25ME1, % of peptide pool [1, 12]: 1.754%
H1.4: K25ME2, % of peptide pool [1, 12]: 0.1017%
H1.4: K25ME3, % of peptide pool [1, 12]: 0.01896%
H1.4: K25UN, % of peptide pool [1, 12]: 98.1009%
H2A1: K13AC, % of peptide pool [1, 12]: 0.02445%
H2A1: K13UN, % of peptide pool [1, 12]: 99.9755%
H2A1: K15AC, % of peptide pool [1, 12]: 0.008356%
H2A1: K15UB, % of peptide pool [1, 12]: 0%
H2A1: K15UN, % of peptide pool [1, 12]: 99.9916%
H2A3: K13AC, % of peptide pool [1, 12]: 0.03116%
H2A3: K13UN, % of peptide pool [1, 12]: 99.9688%
H2A3: K15AC, % of peptide pool [1, 12]: 0.09989%
H2A3: K15UB, % of peptide pool [1, 12]: 0%
H2A3: K15UN, % of peptide pool [1, 12]: 99.9001%
H2A: K5AC, % of peptide pool [1, 12]: 30.5025%
H2A: K5UN, % of peptide pool [1, 12]: 69.4975%
H2A: K9AC, % of peptide pool [1, 12]: 4.727%
H2A: K9UN, % of peptide pool [1, 12]: 95.2735%
H2A: K36AC, % of peptide pool [1, 12]: 0.03623%
H2A: K36UN, % of peptide pool [1, 12]: 99.9638%
H3: K9AC, % of peptide pool [1, 12]: 3.623%
H3: K9ME1, % of peptide pool [1, 12]: 30.7914%
H3: K9ME2, % of peptide pool [1, 12]: 27.5315%
H3: K9ME3, % of peptide pool [1, 12]: 2.296%
H3: K9UN, % of peptide pool [1, 12]: 35.7584%
H3: K14AC, % of peptide pool [1, 12]: 58.3927%
H3: K14UN, % of peptide pool [1, 12]: 41.6073%
H3: K18AC, % of peptide pool [1, 12]: 38.2845%
H3: K18ME1, % of peptide pool [1, 12]: 0.1021%
H3: K18UN, % of peptide pool [1, 12]: 61.6134%
H3: K23AC, % of peptide pool [1, 12]: 46.4415%
H3: K23ME1, % of peptide pool [1, 12]: 0.02903%
H3: K23UN, % of peptide pool [1, 12]: 53.5295%
H3: K56AC, % of peptide pool [1, 12]: 0.1713%
H3: K56ME1, % of peptide pool [1, 12]: 1.011%
H3: K56UN, % of peptide pool [1, 12]: 98.8174%
H3: K64AC, % of peptide pool [1, 12]: 0.03095%
H3: K64UN, % of peptide pool [1, 12]: 99.9691%
H3: K79AC, % of peptide pool [1, 12]: 0.6776%
H3: K79ME1, % of peptide pool [1, 12]: 18.2028%
H3: K79ME2, % of peptide pool [1, 12]: 5.702%
H3: K79ME3, % of peptide pool [1, 12]: 13.4482%
H3: K79UN, % of peptide pool [1, 12]: 61.9691%
H3: K122AC, % of peptide pool [1, 12]: 0.1638%
H3: K122UN, % of peptide pool [1, 12]: 99.8362%
H3: Q19ME1, % of peptide pool [1, 12]: 0.00624%
H3: Q19UN, % of peptide pool [1, 12]: 99.9938%
H3: Q55ME1, % of peptide pool [1, 12]: 0.3096%
H3: Q55UN, % of peptide pool [1, 12]: 99.6904%
H3: R42ME2, % of peptide pool [1, 12]: 2.863%
H3: R42UN, % of peptide pool [1, 12]: 97.1374%
H3: R49ME2, % of peptide pool [1, 12]: 6.457%
H3: R49UN, % of peptide pool [1, 12]: 93.5429%
H3R2UN: K4AC, % of peptide pool [1, 12]: 0.2031%
H3R2UN: K4ME1, % of peptide pool [1, 12]: 23.4933%
H3R2UN: K4ME2, % of peptide pool [1, 12]: 0.2912%
H3R2UN: K4ME3, % of peptide pool [1, 12]: 0.05363%
H3R2UN: K4UN, % of peptide pool [1, 12]: 75.9587%
H3R2UN: Q5ME1, % of peptide pool [1, 12]: 0.06645%
H3R2UN: Q5UN, % of peptide pool [1, 12]: 99.9336%
H3.1: K27AC, % of peptide pool [1, 12]: 8.049%
H3.1: K27ME1, % of peptide pool [1, 12]: 45.2407%
H3.1: K27ME2, % of peptide pool [1, 12]: 17.0794%
H3.1: K27ME3, % of peptide pool [1, 12]: 2.551%
H3.1: K27UN, % of peptide pool [1, 12]: 27.08%
H3.1: K36AC, % of peptide pool [1, 12]: 0.2956%
H3.1: K36ME1, % of peptide pool [1, 12]: 12.4481%
H3.1: K36ME2, % of peptide pool [1, 12]: 50.5827%
H3.1: K36ME3, % of peptide pool [1, 12]: 20.2944%
H3.1: K36UN, % of peptide pool [1, 12]: 16.3791%
H3.3: K27AC, % of peptide pool [1, 12]: 13.7879%
H3.3: K27M, % of peptide pool [1, 12]: 0%
H3.3: K27ME1, % of peptide pool [1, 12]: 42.1096%
H3.3: K27ME2, % of peptide pool [1, 12]: 14.1824%
H3.3: K27ME3, % of peptide pool [1, 12]: 5.8099%
H3.3: K27UN, % of peptide pool [1, 12]: 24.1102%
H3.3: K36AC, % of peptide pool [1, 12]: 4.027%
H3.3: K36ME1, % of peptide pool [1, 12]: 9.936%
H3.3: K36ME2, % of peptide pool [1, 12]: 52.9264%
H3.3: K36ME3, % of peptide pool [1, 12]: 21.2958%
H3.3: K36UN, % of peptide pool [1, 12]: 11.8156%
H4: K5AC, % of peptide pool [1, 12]: 13.3396%
H4: K5UN, % of peptide pool [1, 12]: 86.6604%
H4: K8AC, % of peptide pool [1, 12]: 32.6787%
H4: K8UN, % of peptide pool [1, 12]: 67.3213%
H4: K12AC, % of peptide pool ([1]; 2102EP cells, Mod Spec raw data, histone H4 K12 acetylated): 21.736 % of peptide pool
H4: K12UN, % of peptide pool ([1]; 2102EP cells, Mod Spec raw data, histone H4 K12 unmodified): 78.264 % of peptide pool
H4: K16AC, % of peptide pool ([1]; 2102EP cells, Mod Spec raw data, histone H4 K16 acetylated): 69.3546 % of peptide pool
H4: K16UN, % of peptide pool ([1]; 2102EP cells, Mod Spec raw data, histone H4 K16 unmodified): 30.6454 % of peptide pool
H4: K20AC, % of peptide pool ([1]; 2102EP cells, Mod Spec raw data, histone H4 K20 acetylated): 15.0365 % of peptide pool
H4: K20ME2, % of peptide pool ([1]; 2102EP cells, Mod Spec raw data, histone H4 K20 dimethylated): 57.6801 % of peptide pool
H4: K20ME1, % of peptide pool ([1]; 2102EP cells, Mod Spec raw data, histone H4 K20 monomethylated): 5.018 % of peptide pool
H4: K20ME3, % of peptide pool ([1]; 2102EP cells, Mod Spec raw data, histone H4 K20 trimethylated): 3.192 % of peptide pool
H4: K20UN, % of peptide pool ([1]; 2102EP cells, Mod Spec raw data, histone H4 K20 unmodified): 19.0735 % of peptide pool
change of histone modifications of the expected mode of action (Mod Spec) [1, 13]: strong accumulation of histone acetylation on histones H3 and H4
off-target changes of histone modifications (Mod Spec) [1, 13]: increase in histone methylation (H3K4me1, H3.3K27me3, H3K56me1, H4K20me1/3)
EC50 [2]: 0.00625 µM
EC50 [3]: 0.0107 µM
EC50 [4]: > 0.05 µM
EC50 [5]: < 1 µM
EC50 [6]: 0.0132 µM
EC50 [7]: < 1 µM
EC50 [8]: 0.00948 µM
CREB, STAT3 and STAT5 phosphorylation and total levels of β-Catenin and HSP60 [9]: decreased
p53 S15 phosphorylation [9]: no alteration
EC50 [10]: 0.0116 µM
EC50 [11]: 0.00735 µM
